According to ChEMBL document CHEMBL1201862, “PubChem BioAssay data set” (2004):
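Each compound was tested at five concentrations against cells in 96-well plates for 48 hours. Here, GI50 denotes the concentration required for 50% inhibition of growth.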 Active and inactive are the calls of the source. No stated cut-off is given here; in the data, active = GI50 up to about 1.1 µM and inactive = higher. Where a SMILES comes first, the peptide text is derived from it. [ ]: non-standard residue; d: D form. The star is where a group is joined. ξ: configuration not given here. NMeF = CN[C@@H](Cc1ccccc1)C(=O)O; NMeV = CN[C@H](C(=O)O)C(C)C; ξNMeN = CNC(CC(N)=O)C(=O)O; NMeA = CN[C@@H](C)C(=O)O; ξNMeV = CNC(C(=O)O)C(C)C; Boc = CC(C)(C)OC(=O)*

What was measured:
Assay in all cases: inhibition of tumour cell growth, NCI panel, 48 h
M19-MEL = tested on: M19-MEL
U-251 = tested on: U-251
UO-31 = tested on: UO-31
KM12 = tested on: KM12
OVCAR-5 = tested on: OVCAR-5
SK-OV-3 = tested on: SK-OV-3
COLO 205 = tested on: COLO 205
MOLT-4 = tested on: MOLT-4
OVCAR-4 = tested on: OVCAR-4
SK-MEL-2 = tested on: SK-MEL-2
CAKI-1 = tested on: CAKI-1
OVCAR-8 = tested on: OVCAR-8
SR = tested on: SR
ACHN = tested on: ACHN
M14 = tested on: M14
SN12C = tested on: SN12C
RXF 393 = tested on: RXF 393
MDA-N = tested on: MDA-N
MDA-MB-435 = tested on: MDA-MB-435
Hs-578T = tested on: Hs-578T

| Compound | GI50 (M19-MEL) | GI50 (U-251) | GI50 (UO-31) | GI50 (KM12) | GI50 (OVCAR-5) | GI50 (SK-OV-3) | GI50 (COLO 205) | GI50 (MOLT-4) | GI50 (OVCAR-4) | GI50 (SK-MEL-2) | GI50 (CAKI-1) | GI50 (OVCAR-8) | GI50 (SR) | GI50 (ACHN) | GI50 (M14) | GI50 (SN12C) | GI50 (RXF 393) | GI50 (MDA-N) | GI50 (MDA-MB-435) | GI50 (Hs-578T) |
| --- | --- | --- | --- | --- | --- | --- | --- | --- | --- | --- | --- | --- | --- | --- | --- | --- | --- | --- | --- | --- |
| CCOC(=O)C1=C(Nc2ccc(Br)cc2)OC/C1=N\NC(=O)c1ccccc1O | 35 µM (inactive) | 9.23 µM (inactive) | 9.71 µM (inactive) | 21.5 µM (inactive) | 46.1 µM (inactive) | 12.8 µM (inactive) | 38.9 µM (inactive) | 11.4 µM (inactive) | 26.2 µM (inactive) | 15.1 µM (inactive) | 6.49 µM (inactive) | 13.1 µM (inactive) | 9.06 µM (inactive) | 5.13 µM (inactive) | 23.5 µM (inactive) | 52.4 µM (inactive) | 1.29 µM (inactive) | – | – | – |
| O=C(NC1C=Nc2ccccc2NC1=O)c1ccccc1Cl (stereo unspecified) | 57 µM (inactive) | 28.8 µM (inactive) | 24.9 µM (inactive) | 50.7 µM (inactive) | > 100 µM (inactive) | > 100 µM (inactive) | 22.7 µM (inactive) | 12.6 µM (inactive) | 33.3 µM (inactive) | 36.9 µM (inactive) | 46.8 µM (inactive) | 43 µM (inactive) | 31.8 µM (inactive) | 39.6 µM (inactive) | 80.5 µM (inactive) | 64.4 µM (inactive) | 13 µM (inactive) | – | – | – |
| C[Si](C)(C)C(CCCCSc1ccccc1)(Sc1ccccc1)Sc1ccccc1 | > 100 µM (inactive) | 85.5 µM (inactive) | > 100 µM (inactive) | > 100 µM (inactive) | – | > 100 µM (inactive) | > 100 µM (inactive) | > 100 µM (inactive) | > 100 µM (inactive) | > 100 µM (inactive) | > 100 µM (inactive) | > 100 µM (inactive) | > 100 µM (inactive) | > 100 µM (inactive) | – | > 100 µM (inactive) | > 100 µM (inactive) | – | – | – |
| COC(=O)C1C=CCC2CCCCC21N1CCCC1 (stereo unspecified) | 59.3 µM (inactive) | 40.4 µM (inactive) | > 100 µM (inactive) | 53.6 µM (inactive) | > 100 µM (inactive) | > 100 µM (inactive) | 40.9 µM (inactive) | 64.4 µM (inactive) | > 100 µM (inactive) | – | > 100 µM (inactive) | 59.4 µM (inactive) | 76.7 µM (inactive) | > 100 µM (inactive) | > 100 µM (inactive) | 78.5 µM (inactive) | > 100 µM (inactive) | – | – | – |
| O=c1cnn2c(n1)sc1ccc3ccccc3c12 | > 100 µM (inactive) | > 100 µM (inactive) | > 100 µM (inactive) | > 100 µM (inactive) | > 100 µM (inactive) | > 100 µM (inactive) | > 100 µM (inactive) | 30.1 µM (inactive) | > 100 µM (inactive) | > 100 µM (inactive) | > 100 µM (inactive) | > 100 µM (inactive) | 59.4 µM (inactive) | > 100 µM (inactive) | > 100 µM (inactive) | > 100 µM (inactive) | > 100 µM (inactive) | – | – | – |
| CC(C)NC(C)Cc1ccccc1 (stereo unspecified) | > 100 µM (inactive) | > 100 µM (inactive) | > 100 µM (inactive) | > 100 µM (inactive) | > 100 µM (inactive) | > 100 µM (inactive) | > 100 µM (inactive) | – | > 100 µM (inactive) | > 100 µM (inactive) | > 100 µM (inactive) | > 100 µM (inactive) | > 100 µM (inactive) | > 100 µM (inactive) | > 100 µM (inactive) | > 100 µM (inactive) | > 100 µM (inactive) | – | – | – |
| COC(=O)[C@H](C)N(C)C(=O)C(CC(N)=O)N(C)C(=O)[C@H](Cc1ccccc1)N(C)C(=O)[C@@H]1CCCN1C(=O)[C@H](C(C)C)N(C)C(=O)C(C(C)C)N(C)C(=O)[C@@H](NC(=O)OC(C)(C)C)C(C)C (stereo partly specified) (Boc-V[ξNMeV][NMeV]P[NMeF][ξNMeN][NMeA]-OMe) | 18.4 µM (inactive) | > 50 µM (inactive) | > 50 µM (inactive) | 16.4 µM (inactive) | > 50 µM (inactive) | > 50 µM (inactive) | > 50 µM (inactive) | 24.5 µM (inactive) | 38.5 µM (inactive) | > 50 µM (inactive) | > 50 µM (inactive) | 48.6 µM (inactive) | 21.3 µM (inactive) | > 50 µM (inactive) | > 50 µM (inactive) | > 50 µM (inactive) | 37.6 µM (inactive) | > 50 µM (inactive) | > 50 µM (inactive) | – |
| C[C@H]1C/C=C/[C@H]2[C@@H]3O[C@]3(C)[C@@H](C)[C@H]3[C@H](Cc4ccccc4)NC(=O)[C@]32OC(=O)O/C=C/[C@@](C)(O)C1=O [CYTOCHALASIN E] | 0.0759 µM (active) | 0.0188 µM (active) | 0.0199 µM (active) | 17.5 µM (inactive) | 11.3 µM (inactive) | 0.0292 µM (active) | – | 8.59 µM (inactive) | 0.0262 µM (active) | 0.393 µM (active) | 0.0132 µM (active) | 23.6 µM (inactive) | 0.065 µM (active) | < 0.01 µM (active) | 0.0436 µM (active) | 3.16 µM (inactive) | 0.0111 µM (active) | 0.0231 µM (active) | 18.9 µM (inactive) | 0.0171 µM (active) |
